Assay results: patent publication US12281122B1, “PI3K inhibitors” (Cogent Biosciences, Inc., priority 2023, dated 2025)

Columns and labels:
[1] = test system: T47D (PI3Kα-H1047R) cell line; assay: HTRF phospho-AKT(S473) cell assay in T47D cells; assay type: cell-based, human; conditions: Homo sapiens, 2 hours compound incubation
Summary of the method: (§1)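 pAKT(S473) in lysates read by HTRF after a 2 h, 37 °C compound exposure (12-point 1:3 series, max 0.5% DMSO). SKBR3 (wild type, top 10 μM) received 70 ng/ml PDGF-BB during the final 15 min; T47D (H1047R, top 5 μM) was unstimulated. IC50 values derived from the dose-response.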

[2] = test system: SKBR3 (PI3Kα-Wild Type) cell line; assay: HTRF phospho-AKT(S473) cell assay in SKBR3 cells; assay type: cell-based, human; conditions: Homo sapiens, SK-BR-3, 2 hours compound incubation, PDGF-BB stimulated
Summary of the method: as §1

[3] = T47D (PI3Kα-H1047R) cells, HTRF phospho-AKT(S473)
[4] = SKBR3 (PI3Kα-Wild Type) cells, HTRF phospho-AKT(S473)
[5] = HTRF phospho-AKT(S473), T47D (PI3Kα-H1047R) cells
[6] = HTRF phospho-AKT(S473), SKBR3 (PI3Kα-Wild Type) cells

An IC50 [1, 3] of under 250 nM and an IC50 [2, 4] of 1000 to 5000 nM were found for `Cc1cc([C@@H](C)Nc2ccc(Cl)nc2C(=O)NS(C)(=O)=O)c2nc(N3CCC(c4c(C)n[nH]c4C)CC3)n(C)c(=O)c2c1` [Compound 232, (R)-6-chloro-3-((1-(2-(4-(3,5-dimethyl-1H-pyrazol-4-yl)piperidin-1-yl)-3,6-dimethyl-4-oxo-3,4-dihydroquinazolin-8-yl)ethyl)amino)-N-(methylsulfonyl) picolinamide] in this work.

An IC50 [1, 5] of under 250 nM and an IC50 [2, 6] of at least 5000 nM were found for `Cc1cc([C@@H](C)Nc2ccc(Cl)nc2C(=O)NS(C)(=O)=O)c2nc(N3C[C@@H]4[C@H](C3)[C@H]4c3nn(C)c(C)c3F)n(C)c(=O)c2c1` [Compound 462, 6-chloro-3-(((R)-1-(2-((1R,5S,6R)-6-(4-fluoro-1,5-dimethyl-1H-pyrazol-3-yl)-3-azabicyclo[3.1.0]hexan-3-yl)-3,6-dimethyl-4-oxo-3,4-dihydroquinazolin-8-yl)ethyl)amino)-N-(methylsulfonyl) picolinamide] in this work.

An IC50 [1, 5] of under 250 nM and an IC50 [2, 6] of 1000 to 5000 nM were found for `Cc1cc([C@@H](C)Nc2ccc(Cl)nc2C(=O)NS(C)(=O)=O)c2nc(-c3ccc(-c4cnn(C)c4)c(F)c3)n(C)c(=O)c2c1` [Compound 794, (R)-6-chloro-3-((1-(2-(3-fluoro-4-(1-methyl-1H-pyrazol-4-yl)phenyl)-3,6-dimethyl-4-oxo-3,4-dihydroquinazolin-8-yl)ethyl)amino)-N-(methylsulfonyl) picolinamide] in this work.

An IC50 [1, 5] of 250 to 500 nM and an IC50 [2, 6] of at least 5000 nM were found for `Cc1cc([C@@H](C)Nc2ccc(Cl)nc2C(=O)NS(C)(=O)=O)c2nc(N3C[C@@H]4[C@H](C3)[C@H]4c3n[nH]cc3Cl)n(C)c(=O)c2c1` [Compound 593, 6-chloro-3-(((R)-1-(2-((1R,5S,6R)-6-(4-chloro-1H-pyrazol-3-yl)-3-azabicyclo[3.1.0]hexan-3-yl)-3,6-dimethyl-4-oxo-3,4-dihydroquinazolin-8-yl)ethyl)amino)-N-(methylsulfonyl) picolinamide] in this work.

An IC50 [1, 3] of under 250 nM and an IC50 [2, 4] of 1000 to 5000 nM were found for `Cc1cc([C@@H](C)Nc2ccc(Cl)nc2C(=O)NS(C)(=O)=O)c2nc(-c3cnc(-c4cnn(C)c4)c(Cl)c3)n(C)c(=O)c2c1` [Compound 292, (R)-6-chloro-3-((1-(2-(5-chloro-6-(1-methyl-1H-pyrazol-4-yl)pyridin-3-yl)-3,6-dimethyl-4-oxo-3,4-dihydroquinazolin-8-yl)ethyl)amino)-N-(methylsulfonyl) picolinamide] in this work.

An IC50 [1, 5] of 250 to 500 nM and an IC50 [2, 6] of at least 5000 nM were found for `Cc1cc([C@@H](C)Nc2ccc(Cl)nc2C(=O)NS(C)(=O)=O)c2nc(-c3ccn(-c4ccn(C)n4)c(=O)c3)n(C)c(=O)c2c1` [Compound 807, (R)-6-chloro-3-((1-(3,6-dimethyl-2-(1-(1-methyl-1H-pyrazol-3-yl)-2-oxo-1,2-dihydropyridin-4-yl)-4-oxo-3,4-dihydroquinazolin-8-yl)ethyl)amino)-N-(methylsulfonyl) picolinamide] in this work.

An IC50 [1, 5] of under 250 nM and an IC50 [2, 6] of 1000 to 5000 nM were found for `Cc1cc([C@@H](C)Nc2ccc(Cl)nc2C(=O)NS(C)(=O)=O)c2nc(N3Cc4cnc(C)cc4C3)n(C)c(=O)c2c1` [Compound 516, (R)-6-chloro-3-((1-(3,6-dimethyl-2-(6-methyl-1,3-dihydro-2H-pyrrolo[3,4-c]pyridin-2-yl)-4-oxo-3,4-dihydroquinazolin-8-yl)ethyl)amino)-N-(methylsulfonyl) picolinamide] in this work.

An IC50 [1, 5] of 1000 to 5000 nM and an IC50 [2, 6] of at least 5000 nM were found for `Cc1cc([C@@H](C)Nc2ccc(Cl)nc2C(=O)NS(C)(=O)=O)c2nc(N3CCC[C@@H](c4ncc(Cl)cn4)C3)n(C)c(=O)c2c1` (relative stereo) [Compound 588, 6-chloro-3-(((R)-1-(2-((R*)-3-(5-chloropyrimidin-2-yl)piperidin-1-yl)-3,6-dimethyl-4-oxo-3,4-dihydroquinazolin-8-yl)ethyl)amino)-N-(methylsulfonyl) picolinamide] in this work.

An IC50 [1, 5] of under 250 nM and an IC50 [2, 6] of 1000 to 5000 nM were found for `Cc1cc([C@@H](C)Nc2ccc(Cl)nc2C(=O)NS(C)(=O)=O)c2nc(N3Cc4cn(Cc5ccccc5)nc4C3)n(C)c(=O)c2c1` [Compound 684, (R)-3-((1-(2-(2-benzyl-2,6-dihydropyrrolo[3,4-c]pyrazol-5(4H)-yl)-3,6-dimethyl-4-oxo-3,4-dihydroquinazolin-8-yl)ethyl)amino)-6-chloro-N-(methylsulfonyl) picolinamide] in this work.

An IC50 [1, 5] of 250 to 500 nM and an IC50 [2, 6] of 1000 to 5000 nM were found for `Cc1cc([C@@H](C)Nc2ccc(Cl)nc2C(=O)NS(C)(=O)=O)c2nc(N3C[C@@H]4[C@H](C3)[C@H]4n3ccccc3=O)n(C)c(=O)c2c1` [Compound 755, 6-chloro-3-(((R)-1-(3,6-dimethyl-4-oxo-2-((1R,5S,6S)-6-(2-oxopyridin-1(2H)-yl)-3-azabicyclo[3.1.0]hexan-3-yl)-3,4-dihydroquinazolin-8-yl)ethyl)amino)-N-(methylsulfonyl) picolinamide] in this work.

An IC50 [1, 5] of under 250 nM and an IC50 [2, 6] of 1000 to 5000 nM were found for `Cc1cc([C@@H](C)Nc2ccc(Cl)nc2C(=O)NS(C)(=O)=O)c2nc(N3C[C@@H]4[C@H](C3)[C@H]4c3coc(C)n3)n(C)c(=O)c2c1` [Compound 448, 6-chloro-3-(((R)-1-(3,6-dimethyl-2-((1R,5S,6R)-6-(2-methyloxazol-4-yl)-3-azabicyclo[3.1.0]hexan-3-yl)-4-oxo-3,4-dihydroquinazolin-8-yl)ethyl)amino)-N-(methylsulfonyl) picolinamide] in this work.

An IC50 [1, 5] of 500 to 1000 nM and an IC50 [2, 6] of at least 5000 nM were found for `Cc1cc([C@@H](C)Nc2ccc(Cl)nc2C(=O)NS(C)(=O)=O)c2nc(N3CCC(c4ccc[nH]c4=O)CC3)n(C)c(=O)c2c1` [Compound 706, (R)-6-chloro-3-((1-(3,6-dimethyl-4-oxo-2-(4-(2-oxo-1,2-dihydropyridin-3-yl)piperidin-1-yl)-3,4-dihydroquinazolin-8-yl)ethyl)amino)-N-(methylsulfonyl) picolinamide] in this work.

An IC50 [1, 3] of under 250 nM and an IC50 [2, 4] of 1000 to 5000 nM were found for `Cc1cc([C@@H](C)Nc2ccc(Cl)nc2C(=O)NS(C)(=O)=O)c2nc(N3CCC[C@H](c4ccncc4)C3)n(C)c(=O)c2c1` (relative stereo) [Compound 205, 6-chloro-3-(((R)-1-(3,6-dimethyl-4-oxo-2-((R*)-3-(pyridin-4-yl)piperidin-1-yl)-3,4-dihydroquinazolin-8-yl)ethyl)amino)-N-(methylsulfonyl) picolinamide] in this work.

An IC50 ([1]; T47D (PI3Kα-H1047R) cell line, phospho-AKT(S473) HTRF) of 500 to 1000 nM and an IC50 ([2]; SKBR3 (PI3Kα-Wild Type) cell line, phospho-AKT(S473) HTRF) of at least 5000 nM were found for `Cc1cc([C@@H](C)Nc2ccc(Cl)nc2C(=O)NS(C)(=O)=O)c2nc(C#Cc3cnn(C)c3)n(C)c(=O)c2c1` [Compound 845, (R)-6-chloro-3-((1-(3,6-dimethyl-2-((1-methyl-1H-pyrazol-4-yl)ethynyl)-4-oxo-3,4-dihydroquinazolin-8-yl)ethyl)amino)-N-(methylsulfonyl) picolinamide] in this work.

An IC50 [1, 3] of under 250 nM and an IC50 [2, 4] of 1000 to 5000 nM were found for `Cc1cc([C@@H](C)Nc2ccc(Cl)nc2C(=O)NS(C)(=O)=O)c2nc(N3CCN(c4cnc(C)nc4)CC3)n(C)c(=O)c2c1` [Compound 257, (R)-6-chloro-3-((1-(3,6-dimethyl-2-(4-(2-methylpyrimidin-5-yl)piperazin-1-yl)-4-oxo-3,4-dihydroquinazolin-8-yl)ethyl)amino)-N-(methylsulfonyl) picolinamide] in this work.

An IC50 [1, 5] of 250 to 500 nM and an IC50 [2, 6] of at least 5000 nM were found for `Cc1cc([C@@H](C)Nc2ccc(Cl)nc2C(=O)NS(C)(=O)=O)c2nc(-c3ccnc(O[C@@H]4CCNCC4(F)F)c3)n(C)c(=O)c2c1` [Compound 808, 6-chloro-3-(((R)-1-(2-(2-(((R)-3,3-difluoropiperidin-4-yl)oxy)pyridin-4-yl)-3,6-dimethyl-4-oxo-3,4-dihydroquinazolin-8-yl)ethyl)amino)-N-(methylsulfonyl) picolinamide] in this work.

An IC50 [1, 5] of under 250 nM and an IC50 [2, 6] of 1000 to 5000 nM were found for `Cc1cc([C@@H](C)Nc2ccc(Cl)nc2C(=O)NS(C)(=O)=O)c2nc(N3CCC(n4cc(C)nn4)CC3)n(C)c(=O)c2c1` [Compound 716, (R)-6-chloro-3-((1-(3,6-dimethyl-2-(4-(4-methyl-1H-1,2,3-triazol-1-yl)piperidin-1-yl)-4-oxo-3,4-dihydroquinazolin-8-yl)ethyl)amino)-N-(methylsulfonyl) picolinamide] in this work.

An IC50 [1, 3] of under 250 nM and an IC50 [2, 4] of at least 5000 nM were found for `Cc1cc([C@@H](C)Nc2ccc(Cl)nc2C(=O)NS(C)(=O)=O)c2nc(N3C[C@H]4CC(c5ccn(C)n5)C[C@@H]4C3)n(C)c(=O)c2c1` (single isomer, unassigned) [Compound 425, 6-chloro-3-(((R)-1-(3,6-dimethyl-2-((3aS*,6aS*)-5-(1-methyl-1H-pyrazol-3-yl)hexahydrocyclopenta [c]pyrrol-2(1H)-yl)-4-oxo-3,4-dihydroquinazolin-8-yl)ethyl)amino)-N-(methylsulfonyl) picolinamide] in this work.

An IC50 [1, 3] of 250 to 500 nM and an IC50 [2, 4] of 1000 to 5000 nM were found for `Cc1cc([C@@H](C)Nc2ccc(Cl)nc2C(=O)NS(C)(=O)=O)c2nc(N3Cc4cn(CCO)nc4C3)n(C)c(=O)c2c1` [Compound 149, (R)-6-chloro-3-((1-(2-(2-(2-hydroxyethyl)-2,6-dihydropyrrolo[3,4-c]pyrazol-5(4H)-yl)-3,6-dimethyl-4-oxo-3,4-dihydroquinazolin-8-yl)ethyl)amino)-N-(methylsulfonyl) picolinamide] in this work.
